In ChEMBL document CHEMBL3885861, “Open TG-GATES”:

Organism: Rattus norvegicus
Test: Open TG-GATES - Regimen: Single
Format: toxicity, organism-based, Sprague-Dawley
Set-up: regimen Single, gender Male, age 6 weeks
Conditions: in vivo, po, 30 mg/kg, route gavage, dose level Low; for APTT / Bas / Eos / Fbg / Hb / Ht / Lym / MCHC / MCV / Mono / Neu / PT / Plat / RBC / Ret / WBC: tissue Blood; for KIDNEY_L / KIDNEY_R / KIDNEY_TOTAL: tissue Kidney; for LIVER: tissue Liver; for ALP / ALT / AST / BUN / CRE / Ca / Cl / DBIL / GLC / IP / K / LDH / Na / PL / RALB / TBIL / TC / TG / TP / gamma-GTP: tissue Plasma

CS(=O)(=O)Nc1ccc([N+](=O)[O-])cc1Oc1ccccc1 [NIMESULIDE] was tested, and the TERMINAL_BW (3 h) was 200.4 g, the APTT (3 h) was 16.6 s and the Bas (3 h) was 0%. The Eos (3 h) was 1%, the Fbg (3 h) was 231 mg/dL and the Hb (3 h) was 13.1 g/dL. For the same compound, the Ht (3 h) was 39.1%, the Lym (3 h) was 80.8% and the MCHC (3 h) was 33.6%. For the same compound, the MCV (3 h) was 63.4 fL, the Mono (3 h) was 5% and the Neu (3 h) was 13.4%. For the same compound, the PT (3 h) was 12.5 s, the Plat (3 h) was 127.7 x10_4/uL and the RBC (3 h) was 616.4 x10_4/ul. For the same compound, the Ret (3 h) was 11.7%, the WBC (3 h) was 116.6 x10_2/uL and the KIDNEY_L (3 h) was 0.9 g. For the same compound, the KIDNEY_R (3 h) was 0.9 g, the KIDNEY_TOTAL (3 h) was 1.8 g and the LIVER (3 h) was 9 g. For the same compound, the ALP (3 h) was 803 IU/L, the ALT (3 h) was 39.6 IU/L and the AST (3 h) was 69.8 IU/L. The BUN (3 h) was 16.6 mg/dL, the CRE (3 h) was 0.6 mg/dL and the Ca (3 h) was 10.9 mg/dL. For the same compound, the Cl (3 h) was 107.6 meq/L, the DBIL (3 h) was 0.064 mg/dL and the GLC (3 h) was 208.4 mg/dL. The IP (3 h) was 9.2 mg/dL, the K (3 h) was 5 meq/L and the LDH (3 h) was 106 IU/L. The Na (3 h) was 141.2 meq/L, the PL (3 h) was 134.4 mg/dL and the RALB (3 h) was 3.7 g/dL. For the same compound, the TBIL (3 h) was 0.3 mg/dL, the TC (3 h) was 78.2 mg/dL and the TG (3 h) was 47.8 mg/dL. It also gave a TP (3 h) of 5.2 g/dL, a gamma-GTP (3 h) of 1.6 IU/L and a TERMINAL_BW (6 h) of 196.1 g. It also gave an APTT (6 h) of 17.4 s, a Bas (6 h) of 0% and an Eos (6 h) of 1%. The Fbg (6 h) was 201.6 mg/dL, the Hb (6 h) was 13.7 g/dL and the Ht (6 h) was 40.5%. The Lym (6 h) was 74.6%, the MCHC (6 h) was 33.8% and the MCV (6 h) was 65.6 fL. For the same compound, the Mono (6 h) was 9.2%, the Neu (6 h) was 15% and the PT (6 h) was 12.6 s. For the same compound, the Plat (6 h) was 111.4 x10_4/uL, the RBC (6 h) was 618 x10_4/ul and the Ret (6 h) was 10.6%. For the same compound, the WBC (6 h) was 84.5 x10_2/uL, the KIDNEY_L (6 h) was 0.9 g and the KIDNEY_R (6 h) was 0.9 g. For the same compound, the KIDNEY_TOTAL (6 h) was 1.8 g, the LIVER (6 h) was 8.3 g and the ALP (6 h) was 790 IU/L. The ALT (6 h) was 33 IU/L, the AST (6 h) was 62.2 IU/L and the BUN (6 h) was 13.8 mg/dL. The CRE (6 h) was 0.6 mg/dL, the Ca (6 h) was 10.7 mg/dL and the Cl (6 h) was 106.6 meq/L. For the same compound, the DBIL (6 h) was 0.054 mg/dL, the GLC (6 h) was 200 mg/dL and the IP (6 h) was 10.2 mg/dL. The K (6 h) was 5 meq/L, the LDH (6 h) was 86.8 IU/L and the Na (6 h) was 139.8 meq/L. For the same compound, the PL (6 h) was 119.6 mg/dL, the RALB (6 h) was 3.7 g/dL and the TBIL (6 h) was 0.4 mg/dL. It also gave a TC (6 h) of 68 mg/dL, a TG (6 h) of 56.6 mg/dL and a TP (6 h) of 5.2 g/dL. For the same compound, the gamma-GTP (6 h) was 1.2 IU/L, the TERMINAL_BW (9 h) was 200.7 g and the APTT (9 h) was 16.7 s. It also gave a Bas (9 h) of 0%, an Eos (9 h) of 0.6% and a Fbg (9 h) of 207.8 mg/dL. It also gave a Hb (9 h) of 13.2 g/dL, a Ht (9 h) of 39.5% and a Lym (9 h) of 81.4%. For the same compound, the MCHC (9 h) was 33.5%, the MCV (9 h) was 66.3 fL and the Mono (9 h) was 8.2%. For the same compound, the Neu (9 h) was 10%, the PT (9 h) was 12.3 s and the Plat (9 h) was 111.8 x10_4/uL. It also gave an RBC (9 h) of 596.2 x10_4/ul, a Ret (9 h) of 11% and a WBC (9 h) of 78.5 x10_2/uL. For the same compound, the KIDNEY_L (9 h) was 1 g, the KIDNEY_R (9 h) was 1 g and the KIDNEY_TOTAL (9 h) was 1.9 g. The LIVER (9 h) was 8.4 g, the ALP (9 h) was 888.4 IU/L and the ALT (9 h) was 30.8 IU/L. For the same compound, the AST (9 h) was 61 IU/L, the BUN (9 h) was 15 mg/dL and the CRE (9 h) was 0.5 mg/dL. It also gave a Ca (9 h) of 10.6 mg/dL, a Cl (9 h) of 108 meq/L and a DBIL (9 h) of 0.014 mg/dL. The GLC (9 h) was 201 mg/dL, the IP (9 h) was 10.2 mg/dL and the K (9 h) was 4.9 meq/L. The LDH (9 h) was 99 IU/L, the Na (9 h) was 139.4 meq/L and the PL (9 h) was 135.8 mg/dL. The RALB (9 h) was 3.9 g/dL, the TBIL (9 h) was 0.4 mg/dL and the TC (9 h) was 78.2 mg/dL. For the same compound, the TG (9 h) was 41 mg/dL, the TP (9 h) was 5.3 g/dL and the gamma-GTP (9 h) was 1.4 IU/L. The TERMINAL_BW (24 h) was 212.5 g, the APTT (24 h) was 17.2 s and the Bas (24 h) was 0%. The Eos (24 h) was 1.2%, the Fbg (24 h) was 199.2 mg/dL and the Hb (24 h) was 13.6 g/dL. For the same compound, the Ht (24 h) was 40.7%, the Lym (24 h) was 71.2% and the MCHC (24 h) was 33.4%. The MCV (24 h) was 63.8 fL, the Mono (24 h) was 8.2% and the Neu (24 h) was 19.4%. It also gave a PT (24 h) of 11.7 s, a Plat (24 h) of 109.8 x10_4/uL and an RBC (24 h) of 638.4 x10_4/ul. For the same compound, the Ret (24 h) was 10.3%, the WBC (24 h) was 124.8 x10_2/uL and the KIDNEY_L (24 h) was 0.9 g. The KIDNEY_R (24 h) was 1 g, the KIDNEY_TOTAL (24 h) was 1.9 g and the LIVER (24 h) was 10.6 g. It also gave an ALP (24 h) of 968.4 IU/L, an ALT (24 h) of 44 IU/L and an AST (24 h) of 68.8 IU/L. The BUN (24 h) was 19.2 mg/dL, the CRE (24 h) was 0.6 mg/dL and the Ca (24 h) was 10.8 mg/dL. For the same compound, the Cl (24 h) was 106 meq/L, the DBIL (24 h) was 0.012 mg/dL and the GLC (24 h) was 190.6 mg/dL. The IP (24 h) was 7.6 mg/dL, the K (24 h) was 4.9 meq/L and the LDH (24 h) was 99.2 IU/L. It also gave a Na (24 h) of 140.2 meq/L, a PL (24 h) of 151.6 mg/dL and an RALB (24 h) of 4 g/dL. For the same compound, the TBIL (24 h) was 0.3 mg/dL, the TC (24 h) was 81 mg/dL and the TG (24 h) was 90 mg/dL. For the same compound, the TP (24 h) was 5.5 g/dL and the gamma-GTP (24 h) was 2 IU/L.
